A compilation of properties of binary mixtures (doi:10.1016/j.molliq.2016.04.040)

Test: xn = mol fraction of the nth substance listed
Conditions: 100 kPa

CC(=O)[O-].CCC[NH3+] + CN1CCCC1=O
speed of sound [m/s]
Conditions	293.15 K	298.15 K	303.15 K	308.15 K	313.15 K	318.15 K	323.15 K	328.15 K	333.15 K
x2 = 0	1504.2	1490.7	–	1461.9	1447.5	–	–	1405.6	–
x2 = 0.05	1506.6	1493.5	–	1464	–	1434.5	1420.4	1406.6	1392.6
x2 = 0.0978	1509.6	1495.7	1481.1	1466.8	1451.7	1436.1	1421.4	1407.6	1393.3
x2 = 0.1978	1515	1501	1485.6	1471.1	–	1439.8	1424.3	1410	1395.1
x2 = 0.3095	1522.4	1506.4	1491.6	1474.8	1459.3	–	–	1413.1	1397.7
x2 = 0.3891	1527.5	1511.4	1495.3	1479	1462.8	1446.7	–	–	1399.2
x2 = 0.4931	1533.3	1517	1500.3	1484.2	1467.1	1451.1	1433.2	1417.5	1401.1
x2 = 0.599	1539.9	1521.9	–	1488.3	1471.5	1453.8	1436.8	1420.2	–
x2 = 0.7001	1545.8	1527.3	–	1492	1474.8	–	1439.8	1422.2	1405.1
x2 = 0.7998	–	1533.1	1515.2	1497.2	–	1461.4	–	–	1407.8
x2 = 0.891	–	1538.6	1519.6	1501.1	1482.7	1463.9	1445.1	1427.5	1409

CCC[NH3+].O=C[O-] + O
speed of sound [m/s]
Conditions	293.15 K	298.15 K	303.15 K	308.15 K	313.15 K	318.15 K	323.15 K	328.15 K	333.15 K
x2 = 0	1552	1540.7	1530.2	–	1509.5	1499.2	1489.1	1479	1469
x2 = 0.0505	1557.1	1546.6	1536.1	1525.7	1515.4	–	1495.1	1485	1474.9
x2 = 0.1036	1565.1	1554.7	1544.2	1533.9	1523.7	1513.5	1503.4	1493.4	1483.2
x2 = 0.2456	1588.7	1578.5	1568.5	–	1548.1	1538	1528	–	–
x2 = 0.2838	–	1585.9	1575.7	1565.6	–	1545.4	–	1525.4	–
x2 = 0.429	1615.5	1605.7	–	–	1575.8	1566	1556	1546.1	1536
x2 = 0.5184	1632.4	–	1612.8	1603	1593	1583.1	1573.2	1563.3	–
x2 = 0.6064	–	–	1635.4	1625.7	1616	1606.2	1596.4	–	1576.6
x2 = 0.6994	1687.5	1678.4	1669.2	1659.9	1650.5	1641	1631.5	1621.8	1611.9
x2 = 0.8008	1727.2	1719.4	1711.3	–	1694.3	–	1676.4	1666.8	1657.3
x2 = 0.9026	1730	1725.8	–	1716.1	1710.7	1704.7	1698.3	1691.5	1684.3

CC(=O)[O-].CCC[NH3+] + O
speed of sound [m/s]
Conditions	293.15 K	298.15 K	303.15 K	308.15 K	313.15 K	318.15 K	323.15 K	328.15 K	333.15 K
x2 = 0	1504.2	1490.7	1476.6	1461.9	1447.5	1433.3	–	1405.6	1391.1
x2 = 0.05	1506.6	1493.5	1478.6	1464	1449.1	1434.5	1420.4	1406.6	1392.6
x2 = 0.0978	1509.6	1495.7	–	1466.8	1451.7	1436.1	–	1407.6	1393.3
x2 = 0.1978	–	–	1485.6	–	–	1439.8	1424.3	–	1395.1
x2 = 0.3095	–	1506.4	1491.6	1474.8	1459.3	–	1428	1413.1	1397.7
x2 = 0.3891	1527.5	1511.4	1495.3	1479	1462.8	1446.7	1430.3	1414.7	1399.2
x2 = 0.4931	–	1517	1500.3	–	–	–	1433.2	1417.5	–
x2 = 0.599	1539.9	1521.9	1505.3	1488.3	1471.5	–	1436.8	1420.2	1402.8
x2 = 0.7001	1545.8	1527.3	1510	1492	1474.8	1457.5	1439.8	1422.2	1405.1
x2 = 0.7998	1552.5	–	–	1497.2	1478.8	1461.4	–	1424.9	1407.8
x2 = 0.891	–	1538.6	1519.6	1501.1	1482.7	1463.9	–	–	1409

CCC[NH3+].O=C[O-] + CN1CCCC1=O
speed of sound [m/s]
Conditions	293.15 K	298.15 K	303.15 K	308.15 K	313.15 K	318.15 K	323.15 K	328.15 K	333.15 K
x2 = 0	–	1540.7	–	1519.8	1509.5	1499.2	1489.1	1479	1469
x2 = 0.0494	1556.8	1546	1535.1	–	1513.7	1503.1	–	1482	1471.6
x2 = 0.1047	1557.7	1546.3	1534.9	1523.6	–	1501.3	1490.2	1479.3	1468.4
x2 = 0.1953	1559.5	1547.5	1535.4	1523.3	1511.4	1499.5	1487.7	1475.9	1464.2
x2 = 0.3021	–	1547.4	1534.2	–	1508.1	1495.2	1482.3	1469.4	1456.6
x2 = 0.4205	1563.9	–	–	1520.9	1506.7	1492.6	1478.5	1464.5	1450.5
x2 = 0.5063	1566	1550.9	1535.7	1520.7	1505.7	–	1475.9	1461.1	1446.3
x2 = 0.6001	1565.4	1549.7	1533.7	1517.8	1501.9	1486.2	–	–	1439.1
x2 = 0.7075	1565	1548.1	1531.2	1514.3	1497.6	1480.9	1464.2	1447.5	–
x2 = 0.7986	–	–	1529.2	1511.6	–	1476.8	1459.5	1442.2	–
x2 = 0.9048	–	1545.7	1527.6	–	1491.4	1473.5	1455.7	1438	1420.3
